Assay results taken from US20210298306A1, “PESTICIDALLY ACTIVE AZOLE-AMIDE COMPOUNDS” (SYNGENTA PARTICIPATIONS AG, priority 2018, published 2021).

Experiments:
Assay type in all cases: in vivo
Myzus persicae = assay: Example B5: Myzus persicae (green peach aphid), feeding/contact activity, sunflower leaf discs; details: foliar, 144 h, application rate 200 ppm, 6 days after infestation, Myzus persicae mixed ages
Description: Example B5: Myzus persicae (Green Peach Aphid):Feeding/Contact Activity
Sunflower leaf discs were placed onto agar in a 24-well microtiter plate and sprayed with aqueous test solutions prepared from 10,000 ppm DMSO stock solutions. After drying, the leaf discs were infested with an aphid population of mixed ages. The samples were assessed for mortality 6 days after infestation.

Diabrotica balteata = assay: Example B1: Diabrotica balteata (corn root worm), maize sprouts sprayed, L2 larvae; details: 96 h, application rate 200 ppm, 4 days after infestation, read-out: effect in at least one of the two categories (mortality or growth inhibition)
Description: Example B1: Diabrotica Balteata (Corn Root Worm)
Maize sprouts placed onto an agar layer in 24-well microtiter plates were treated with aqueous test solutions prepared from 10,000 ppm DMSO stock solutions by spraying. After drying, the plates were infested with L2 larvae (6 to 10 per well). The samples were assessed for mortality and growth inhibition in comparison to untreated samples 4 days after infestation.
(§1) The following compounds gave an effect of at least 80% in at least one of the two categories (mortality or growth inhibition) at an application rate of 200 ppm: […]

Euschistus heros = assay: Example B2: Euschistus heros (neotropical brown stink bug), soybean leaves sprayed, N2 nymphs; details: 120 h, application rate 200 ppm, 5 days after infestation, read-out: effect in at least one of the two categories (mortality or growth inhibition)
Description: Example B2: Euschistus heros (Neotropical Brown Stink Bug)
Soybean leaves on agar in 24-well microtiter plates were sprayed with aqueous test solutions prepared from 10,000 ppm DMSO stock solutions. After drying the leaves were infested with N2 nymphs. The samples were assessed for mortality and growth inhibition in comparison to untreated samples 5 days after infestation.
as §1

Plutella xylostella = assay: Example B4: Plutella xylostella (diamond back moth), artificial diet, 24-well, eggs; details: 192 h, application rate 200 ppm, 8 days after infestation, read-out: effect in at least one of the two categories (mortality or growth inhibition)
Description: Example B4: Plutella xylostella (Diamond Back Moth)
24-well microtiter plates with artificial diet were treated with aqueous test solutions prepared from 10,000 ppm DMSO stock solutions by pipetting. After drying, Plutella eggs were pipetted through a plastic stencil onto a gel blotting paper and the plate was closed with it. The samples were assessed for mortality and growth inhibition in comparison to untreated samples 8 days after infestation.
as §1

Spodoptera littoralis = assay: Example B7: Spodoptera littoralis (Egyptian cotton leaf worm), cotton leaf discs sprayed, L1 larvae; details: foliar, 72 h, application rate 200 ppm, 3 days after infestation, read-out: control in at least one of the categories (mortality, anti-feedant effect, or growth inhibition)
Description: Example B7: Spodoptera littoralis (Egyptian Cotton Leaf Worm)
Cotton leaf discs were placed onto agar in 24-well microtiter plates and sprayed with aqueous test solutions prepared from 10,000 ppm DMSO stock solutions. After drying the leaf discs were infested with five L1 larvae. The samples were assessed for mortality, anti-feeding effect, and growth inhibition in comparison to untreated samples 3 days after infestation. Control of Spodoptera littoralis by a test sample is given when at least one of the categories mortality, anti-feedant effect, and growth inhibition is higher than the untreated sample.

| Structure (SMILES) | mortality at 200 ppm (Myzus persicae) [%] | percent effect (mortality or growth inhibition) at 200 ppm (Diabrotica balteata) [%] | percent effect (mortality or growth inhibition) at 200 ppm (Euschistus heros) [%] | percent effect (mortality or growth inhibition) at 200 ppm (Plutella xylostella) [%] | percent control (mortality, anti-feedant effect or growth inhibition) at 200 ppm (Spodoptera littoralis) [%] |
| --- | --- | --- | --- | --- | --- |
| CC(NC(=O)c1cncc(OC(F)F)c1)c1ncnn1-c1ncccn1 (stereo not shown) [P24, 5-(difluoromethoxy)-N-[1-(2-pyrimidin-2-yl-1,2,4-triazol-3-yl)ethyl]pyridine-3-carboxamide] | ≥ 80 | ≥ 80 | ≥ 80 | – | – |
| CC(NC(=O)c1cc(OCC(F)(F)F)cc(C(F)(F)F)c1)c1ncnn1-c1ccc(F)cn1 (stereo not shown) [P17, N-[1-[2-(5-fluoro-2-pyridyl)-1,2,4-triazol-3-yl]ethyl]-3-(2,2,2-trifluoroethoxy)-5-(trifluoromethyl) benzamide] | – | ≥ 80 | ≥ 80 | ≥ 80 | ≥ 80 |
| CC(NC(=O)c1cc(SCC(F)(F)F)cc(C(F)(F)F)c1)c1ncnn1-c1ccccn1 (stereo not shown) [P9, N-[1-[2-(2-pyridyl)-1,2,4-triazol-3-yl]ethyl]-3-(2,2,2-trifluoroethylsulfanyl)-5-(trifluoromethyl) benzamide] | – | ≥ 80 | – | ≥ 80 | – |
| CC(NC(=O)c1cc(OCC(F)(F)F)cc(C(F)(F)F)c1)c1ncnn1-c1ccccn1 (stereo not shown) [P10, N-[1-[2-(2-pyridyl)-1,2,4-triazol-3-yl]ethyl]-3-(2,2,2-trifluoroethoxy)-5-(trifluoromethyl) benzamide] | – | ≥ 80 | ≥ 80 | ≥ 80 | ≥ 80 |
| CC(NC(=O)c1cc(SCC(F)(F)F)cc(C(F)(F)F)c1)c1ncnn1-c1ccc(F)cn1 (stereo not shown) [P16, N-[1-[2-(5-fluoro-2-pyridyl)-1,2,4-triazol-3-yl]ethyl]-3-(2,2,2-trifluoroethylsulfanyl)-(trifluoromethyl) benzamide] | – | ≥ 80 | – | ≥ 80 | ≥ 80 |
| CC(NC(=O)c1cc(OC(F)F)cc(C(F)(F)F)c1)c1ncnn1-c1ncccc1F (stereo not shown) [P12, 3-(difluoromethoxy)-N-[1-[2-(3-fluoro-2-pyridyl)-1,2,4-triazol-3-yl]ethyl]-5-(trifluoromethyl) benzamide] | – | ≥ 80 | ≥ 80 | ≥ 80 | ≥ 80 |
| CC(NC(=O)c1cc(SCC(F)(F)F)cc(C(F)(F)F)c1)c1ncnn1-c1ncccc1F (stereo not shown) [P13, N-[1-[2-(3-fluoro-2-pyridyl)-1,2,4-triazol-3-yl]ethyl]-3-(2,2,2-trifluoroethylsulfanyl)-5-(trifluoromethyl) benzamide] | – | ≥ 80 | – | – | – |
| CC(NC(=O)c1cc(SCC(F)(F)F)cc(C(F)(F)F)c1)c1ncnn1-c1ncccn1 (stereo not shown) [P6, N-[1-(2-pyrimidin-2-yl-1,2,4-triazol-3-yl)ethyl]-3-(2,2,2-trifluoroethylsulfanyl)-5-(trifluoromethyl) benzamide] | – | ≥ 80 | – | ≥ 80 | ≥ 80 |
| CC(NC(=O)c1cncc(OC(F)F)c1)c1ncnn1-c1ncccc1F (stereo not shown) [P22, 5-(difluoromethoxy)-N-[1-[2-(3-fluoro-2-pyridyl)-1,2,4-triazol-3-yl]ethyl]pyridine-3-carboxamide] | – | – | – | ≥ 80 | – |
